One block for each compound: values may come before it.
Tested on: 422866-222-R5-J1-PDC complex spheroids viability
Assay: Anticancer human tumor 422866-222-R5-J1-PDC patient-derived pancreatic adenocarcinoma cell line growth inhibition [RAS]
Settings: for IC50: curve of first compound; for viability, T/C: stronger effect = lower value
Method in brief: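 Multi-cell-type spheroids: tumor cells plus HUVEC endothelial cells and mesenchymal stem cells. RAS-pathway inhibitors were combined with targeted agents, each dosed in half-log steps down from clinical Cmax, or from 10 microM when Cmax was unknown.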

[1] = second compound 0.0316 µM, first compound 0.0316 µM
[2] = second compound 0.0316 µM, first compound 0.1 µM
[3] = second compound 0.0316 µM, first compound 0.316 µM
[4] = second compound 0.0316 µM, first compound 1 µM
[5] = second compound 0.1 µM, first compound 0.0316 µM
[6] = second compound 0.1 µM, first compound 0.1 µM
[7] = second compound 0.1 µM, first compound 0.316 µM
[8] = second compound 0.1 µM, first compound 1 µM
[9] = second compound 0.316 µM, first compound 0.0316 µM
[10] = second compound 0.316 µM, first compound 0.1 µM
[11] = second compound 0.316 µM, first compound 0.316 µM
[12] = second compound 0.316 µM, first compound 1 µM
[13] = second compound 1 µM, first compound 0.0316 µM
[14] = second compound 1 µM, first compound 0.1 µM
[15] = second compound 1 µM, first compound 0.316 µM
[16] = second compound 1 µM, first compound 1 µM
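Further: spheroids exposed to compounds for 7 days.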
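Wherever viability, T/C is given: 100% = DMSO vehicle control viability.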

IC50 (second compound 0.00316 µM): < 3.16 nM
IC50 (second compound 0.01 µM): < 3.16 nM
IC50 (second compound 0.0316 µM): < 3.16 nM
IC50 (second compound 0.1 µM): < 3.16 nM
IC50 (second compound 0.316 µM): < 3.16 nM
IC50 (second compound 1 µM): < 3.16 nM
SMILES: CCN1CCN(Cc2ccc(Nc3ncc(F)c(-c4cc(F)c5nc(C)n(C(C)C)c5c4)n3)nc2)CC1 + C=CC(=O)N1CCN(c2nc(OCC3CCCN3C)nc3c(F)c(-c4nc(N)cc(C)c4C(F)(F)F)c(Cl)cc23)C(C)C1
viability, T/C (second compound 0.00316 µM, first compound 0.00316 µM): 25.2%
viability, T/C (second compound 0.00316 µM, first compound 0.01 µM): 32.4%
viability, T/C (second compound 0.00316 µM, first compound 0.0316 µM): 26.4%
viability, T/C (second compound 0.00316 µM, first compound 0.1 µM): 21%
viability, T/C (second compound 0.00316 µM, first compound 0.316 µM): 31.8%
viability, T/C (second compound 0.00316 µM, first compound 1 µM): 36.3%
viability, T/C (second compound 0.01 µM, first compound 0.00316 µM): 25.3%
viability, T/C (second compound 0.01 µM, first compound 0.01 µM): 24.6%
viability, T/C (second compound 0.01 µM, first compound 0.0316 µM): 24.8%
viability, T/C (second compound 0.01 µM, first compound 0.1 µM): 23.3%
viability, T/C (second compound 0.01 µM, first compound 0.316 µM): 25.8%
viability, T/C (second compound 0.01 µM, first compound 1 µM): 30.3%
viability, T/C (second compound 0.0316 µM, first compound 0.00316 µM): 22.7%
viability, T/C (second compound 0.0316 µM, first compound 0.01 µM): 22.1%
viability, T/C [1]: 22.5%
viability, T/C [2]: 18.5%
viability, T/C [3]: 27.8%
viability, T/C [4]: 30.5%
viability, T/C (second compound 0.1 µM, first compound 0.00316 µM): 24.4%
viability, T/C (second compound 0.1 µM, first compound 0.01 µM): 22.2%
viability, T/C [5]: 21%
viability, T/C [6]: 20.7%
viability, T/C [7]: 24.5%
viability, T/C [8]: 31%
viability, T/C (second compound 0.316 µM, first compound 0.00316 µM): 18.9%
viability, T/C (second compound 0.316 µM, first compound 0.01 µM): 20.2%
viability, T/C [9]: 20.3%
viability, T/C [10]: 21.7%
viability, T/C [11]: 27.3%
viability, T/C [12]: 30.4%
viability, T/C (second compound 1 µM, first compound 0.00316 µM): 22.7%
viability, T/C (second compound 1 µM, first compound 0.01 µM): 20.9%
viability, T/C [13]: 23.2%
viability, T/C [14]: 21.2%
viability, T/C [15]: 24.9%
viability, T/C [16]: 37.9%

IC50 (second compound 0.0316 µM): > 10000 nM
IC50 (second compound 0.1 µM): > 10000 nM
IC50 (second compound 0.316 µM): > 10000 nM
IC50 (second compound 1 µM): < 31.6 nM
IC50 (second compound 3.16 µM): < 31.6 nM
IC50 (second compound 10 µM): < 31.6 nM
SMILES: C[C@@H](NC(=O)c1ncnc(N)c1Cl)c1ncc(C(=O)Nc2cc(C(F)(F)F)c(Cl)cn2)s1 + C#Cc1c(F)ccc2cc(O)cc(-c3ncc4c(N5CC6CCC(C5)N6)nc(OCC56CCCN5CC(F)C6)nc4c3F)c12
viability, T/C [1]: 108%
viability, T/C [2]: 114%
viability, T/C [3]: 106%
viability, T/C [4]: 117%
viability, T/C (second compound 0.0316 µM, first compound 3.16 µM): 89%
viability, T/C (second compound 0.0316 µM, first compound 10 µM): 57%
viability, T/C [5]: 103%
viability, T/C [6]: 88.3%
viability, T/C [7]: 89.2%
viability, T/C [8]: 74%
viability, T/C (second compound 0.1 µM, first compound 3.16 µM): 85.3%
viability, T/C (second compound 0.1 µM, first compound 10 µM): 58.3%
viability, T/C [9]: 68.8%
viability, T/C [10]: 67%
viability, T/C [11]: 72.2%
viability, T/C [12]: 55%
viability, T/C (second compound 0.316 µM, first compound 3.16 µM): 72.8%
viability, T/C (second compound 0.316 µM, first compound 10 µM): 48.1%
viability, T/C [13]: 43%
viability, T/C [14]: 44.5%
viability, T/C [15]: 45.4%
viability, T/C [16]: 39.7%
viability, T/C (second compound 1 µM, first compound 3.16 µM): 49.6%
viability, T/C (second compound 1 µM, first compound 10 µM): 46.7%
viability, T/C (second compound 3.16 µM, first compound 0.0316 µM): 29%
viability, T/C (second compound 3.16 µM, first compound 0.1 µM): 28.4%
viability, T/C (second compound 3.16 µM, first compound 0.316 µM): 40.1%
viability, T/C (second compound 3.16 µM, first compound 1 µM): 28.3%
viability, T/C (second compound 3.16 µM, first compound 3.16 µM): 33.1%
viability, T/C (second compound 3.16 µM, first compound 10 µM): 27.9%
viability, T/C (second compound 10 µM, first compound 0.0316 µM): 24.3%
viability, T/C (second compound 10 µM, first compound 0.1 µM): 22.6%
viability, T/C (second compound 10 µM, first compound 0.316 µM): 24.8%
viability, T/C (second compound 10 µM, first compound 1 µM): 24.4%
viability, T/C (second compound 10 µM, first compound 3.16 µM): 23.9%
viability, T/C (second compound 10 µM, first compound 10 µM): 24.5%
